Consider 41 molecules from US8940739B2, “Compound of a reverse-turn mimetic and a production method and use therefor” (JW Pharmaceutical Corporation, priority 2010, dated 2015).

pIC50: −log10 of the molar value.

By pIC50 is commonly meant the IC50 on a negative log10 scale, so that one unit is a factor of ten.

Chain of cDNA-expressed human hepatic CYP3A4 (P08684 whole entry): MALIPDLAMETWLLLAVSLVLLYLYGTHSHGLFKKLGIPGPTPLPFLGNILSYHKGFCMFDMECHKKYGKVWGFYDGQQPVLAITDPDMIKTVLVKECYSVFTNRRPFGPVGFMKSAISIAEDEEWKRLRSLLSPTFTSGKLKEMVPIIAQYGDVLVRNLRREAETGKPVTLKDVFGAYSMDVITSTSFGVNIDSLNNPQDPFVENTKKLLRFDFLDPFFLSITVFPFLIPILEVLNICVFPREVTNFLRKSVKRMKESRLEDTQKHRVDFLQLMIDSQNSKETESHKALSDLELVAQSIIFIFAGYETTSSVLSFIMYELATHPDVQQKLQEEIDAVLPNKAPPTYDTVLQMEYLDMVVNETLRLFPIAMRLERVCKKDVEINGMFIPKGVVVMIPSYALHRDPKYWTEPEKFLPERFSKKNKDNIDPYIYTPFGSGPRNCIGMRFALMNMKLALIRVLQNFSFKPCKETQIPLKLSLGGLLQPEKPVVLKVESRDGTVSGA

For this data set, the target named is cDNA-expressed human hepatic CYP3A4 (Homo sapiens (Human), UniProt P08684). Description: Measurement of CYP (IC50 of P450 CYP3A4), BFC substrate. It is filed as in vitro ADME. Particulars: 20 minutes. On the procedure:
The compounds of the present invention had lower P450 CYP3A4 inhibitory activity (higher IC50). Lower CYP3A4 inhibitory activity means that the compounds of the present invention cause fewer side-effects from the pharmacological point of view.
This assay was performed in a 200 l volume in 96-well microtiter plates using cDNA-expressed human hepatic CYP3A4 (supersome, BD Gentest™ #456202). As a substrate for CYP3A4, 7-benzyloxy-4-trifluoromethyl-coumarin (BFC) was used. The compounds of Examples 1 to 5 and the substrate BFC were dissolved in 100% acetonitrile. The final volume of acetonitrile of the incubation mixture was less than 1% (volume/volume). A potassium phosphate buffer (pH 7.4, final concentration 0.1M), MgCl2 (final concentration 8.3 mM), EDTA (final concentration 1.67 mM), an inventive compound stock solution, CYP3A4 supersome, and NADPH (final concentration 0.25 mM) were added to each well. The reaction was initiated by adding the substrate (BFC, final concentration 30 µM) at 37. The incubation was performed for 20 minutes and then the reaction was terminated by the addition of 75 μl of acetonitrile: 0.5 M tris-base=4:1 (volume/volume).
Then, a fluorescent signal was measured using a fluorometer. A BFC metabolite, 7-hydroxy-4-trifluoromethyl-coumarin, was measured using an excitation wavelength of 409 nm and an emission wavelength of 530 nm.
On to `C=CCN1CC(=O)N2[C@@H](Cc3ccc(O)cc3)C(=O)N(Cc3cccc4c(-c5ccc(NC(=O)CCCNCCC(C)=O)cc5)cn(C)c34)C[C@@H]2N1C(=O)NCc1ccccc1` [Compound D-72], for which the negative logarithm of the IC50 (pIC50) is 5.56.

For the molecule `C=CCN1CC(=O)N2[C@@H](Cc3ccc(O)cc3)C(=O)N(Cc3cccc4c(-c5ccc(NC(=O)CCCCCCC)cc5)cn(C)c34)C[C@@H]2N1C(=O)NCc1ccccc1` [Compound D-52], the pIC50 was 4.66.

Consider `C=CCN1CC(=O)N2[C@@H](Cc3ccc(O)cc3)C(=O)N(Cc3cccc4c(C(=O)NC5CCN(C(=O)CCO)CC5)cn(C)c34)C[C@@H]2N1C(=O)NCc1ccccc1` [Compound F-65], for which the pIC50 was 5.16.

In turn, `C=CCN1CC(=O)N2[C@@H](Cc3ccc(O)cc3)C(=O)N(Cc3cccc4c(C(=O)N5CC6CCN(C)C6C5)cn(C)c34)C[C@@H]2N1C(=O)NCc1ccccc1` (some centres unmarked) [Compound E-68] showed a pIC50 of 5.61.

Take `C=CCN1CC(=O)N2[C@@H](Cc3ccc(O)cc3)C(=O)N(Cc3cccc4c(C(=O)N5CCN6CCN(CC)CC6C5)cn(C)c34)C[C@@H]2N1C(=O)NCc1ccccc1` (some centres unmarked) [Compound E-50]: the pIC50 is 5.30.

As for `C=CCN1CC(=O)N2C(Cc3ccc(O)cc3)C(=O)N(Cc3cccc4c(C(=O)Nc5ccc(NCCN(C(C)C)C(C)C)nc5)cn(C)c34)CC2N1C(=O)NCc1ccccc1` (centres unmarked) [Compound G-25], the pIC50 was 5.39.

The molecule `C=CCN1CC(=O)N2C(Cc3ccc(O)cc3)C(=O)N(Cc3cccc4c(C(=O)Nc5ccc(N(CCN(CC)CC)CCN(CC)CC)nc5)cn(C)c34)CC2N1C(=O)NCc1ccccc1` (centres unmarked) [Compound G-26] had a pIC50 of 5.27.

`C=CCN1CC(=O)N2[C@@H](Cc3ccc(O)cc3)C(=O)N(Cc3cccc4c(C(=O)N[C@H](C)C(=O)OC)cn(C)c34)C[C@@H]2N1C(=O)NCc1ccccc1` [Compound F-21] showed a pIC50 of 4.96. Against the preceding molecule, the pIC50 is 0.31 log units lower.

In the case of `C=CCN1CC(=O)N2C(CN(Cc3cccc4c(C(=O)Nc5ccc(NCCN(CC)CC)nc5)cn(C)c34)C(=O)[C@@H]2Cc2ccc(O)cc2)N1C(=O)NCc1ccccc1` (some centres unmarked) [Compound G-24], the pIC50 is 5.34.

Consider `C=CCN1CC(=O)N2[C@@H](Cc3ccc(O)cc3)C(=O)N(Cc3cccc4c(C(=O)NCCCN5CCOCC5)cn(C)c34)C[C@@H]2N1C(=O)NCc1ccccc1` [Compound F-29], for which the negative-log IC50 (pIC50) is 5.96. This pIC50 lies 0.62 log units higher than the previous one.

Consider `C=CCN1CC(=O)N2[C@@H](Cc3ccc(O)cc3)C(=O)N(Cc3cccc4c(C(=O)N(C)CCn5ccnc5C)cn(C)c34)C[C@@H]2N1C(=O)NCc1ccccc1` [Compound F-36], for which the negative logarithm of the IC50 (pIC50) is 5.61.

`C=CCN1CC(=O)N2[C@@H](Cc3ccc(O)cc3)C(=O)N(Cc3cccc4c(-c5cccc(C(=O)Nc6ccc(N7CCN(c8ccc(OC)cc8)CC7)cc6)c5)cn(C)c34)C[C@@H]2N1C(=O)NCc1ccccc1` [Compound D-25] showed a pIC50 of less than 4.60.

The molecule `C=CCN1CC(=O)N2[C@@H](Cc3ccc(O)cc3)C(=O)N(Cc3cccc4c(C(=O)N5CCN(CCCCO)CC5)cn(C)c34)C[C@@H]2N1C(=O)NCc1ccccc1` [Compound E-12] gave a pIC50 of 5.03.

Consider `C=CCN1CC(=O)N2[C@@H](Cc3ccc(O)cc3)C(=O)N(Cc3cccc4c(C(=O)N5CCN(S(C)(=O)=O)CC5)cn(C)c34)C[C@@H]2N1C(=O)NCc1ccccc1` [Compound E-15], for which the pIC50 was 4.95.

Molecule `C=CCN1CC(=O)N2[C@@H](Cc3ccc(O)cc3)C(=O)N(Cc3cccc4c(C(=O)NCCOCCO)cn(C)c34)C[C@@H]2N1C(=O)NCc1ccccc1` [Compound F-7] had a negative logarithm of the IC50 (pIC50) of 4.79.

In the case of `C=CCN1CC(=O)N2[C@@H](Cc3ccc(O)cc3)C(=O)N(Cc3cccc4c(C(=O)NCCCN(C)C)cn(C)c34)C[C@@H]2N1C(=O)NCc1ccccc1` [Compound F-18], the pIC50 is 4.75.

For `C=CCN1CC(=O)N2[C@@H](Cc3ccc(O)cc3)C(=O)N(Cc3cccc4c(C(=O)NN5CCOCC5)cn(C)c34)C[C@@H]2N1C(=O)NCc1ccccc1` [Compound F-58], the pIC50 is 4.65.

Consider `C=CCN1CC(=O)N2[C@@H](Cc3ccc(O)cc3)C(=O)N(Cc3cccc4c(C(=O)NN5CCN(C6CCCC6)CC5)cn(C)c34)C[C@@H]2N1C(=O)NCc1ccccc1` [Compound F-59], for which the pIC50 is 5.62.

With `C=CCN1CC(=O)N2[C@@H](Cc3ccc(O)cc3)C(=O)N(Cc3cccc4c(C(=O)N5CCN(CCN6CCCCC6)CC5)cn(C)c34)C[C@@H]2N1C(=O)NCc1ccccc1` [Compound E-24], the pIC50 is 5.26.

`C=CCN1CC(=O)N2[C@@H](Cc3ccc(O)cc3)C(=O)N(Cc3cccc4c(C(=O)N5CCC(NC(=O)c6ccc(N7CCN(C)CC7)cc6)CC5)cn(C)c34)C[C@@H]2N1C(=O)NCc1ccccc1` [Compound E-60] had a pIC50 of 5.22.

Regarding `C=CCN1CC(=O)N2C(CN(Cc3cccc4c(C(=O)Nc5ccc(NCCN6CCC(O)CC6)nc5)cn(C)c34)C(=O)[C@@H]2Cc2ccc(O)cc2)N1C(=O)NCc1ccccc1` (some centres unmarked) [Compound G-29], the pIC50 is 5.24.

`C=CCN1CC(=O)N2[C@@H](Cc3ccc(O)cc3)C(=O)N(Cc3cccc4c(C(=O)NNc5ccccc5)cn(C)c34)C[C@@H]2N1C(=O)NCc1ccccc1` [Compound F-60] showed a pIC50 of 5.17.

In turn, `C=CCN1CC(=O)N2[C@@H](Cc3ccc(O)cc3)C(=O)N(Cc3cccc4c(C(=O)N5CC(O)C5)cn(C)c34)C[C@@H]2N1C(=O)NCc1ccccc1` [Compound E-70] had a pIC50 of 4.74.

Consider `C=CCN1CC(=O)N2[C@@H](Cc3ccc(O)cc3)C(=O)N(Cc3cccc4c(C(=O)NCCC(=O)OCC)cn(C)c34)C[C@@H]2N1C(=O)NCc1ccccc1` [Compound F-22], for which the pIC50 is 5.45.

On to `C=CCN1CC(=O)N2[C@@H](Cc3ccc(O)cc3)C(=O)N(Cc3cccc4c(C(=O)NC5CCN(CCCO)CC5)cn(C)c34)C[C@@H]2N1C(=O)NCc1ccccc1` [Compound F-63], for which the negative-log IC50 (pIC50) is 5.01.

In turn, `C=CCN1CC(=O)N2[C@@H](Cc3ccc(O)cc3)C(=O)N(Cc3cccc4c(C(=O)N(C)CCN5CCN(C)CC5)cn(C)c34)C[C@@H]2N1C(=O)NCc1ccccc1` [Compound F-28] showed a pIC50 of 5.11.

Molecule `C=CCN1CC(=O)N2[C@@H](Cc3ccc(O)cc3)C(=O)N(Cc3cccc4c(C(=O)N5CCC(O)CC5)cn(C)c34)C[C@@H]2N1C(=O)NCc1ccccc1` [Compound E-51] had a pIC50 of 4.97. The pIC50 values of the last two molecules are within 0.2 log units of each other.

In the case of `C=CCN1CC(=O)N2[C@@H](Cc3ccc(O)cc3)C(=O)N(Cc3cccc4c(C(=O)N(C)CC(=O)N5CCN(C)CC5)cn(C)c34)C[C@@H]2N1C(=O)NCc1ccccc1` [Compound F-32], the negative-log IC50 (pIC50) is 5.30.

Take `C=CCN1CC(=O)N2[C@@H](Cc3ccc(O)cc3)C(=O)N(Cc3cccc4c(-c5ccc(NC(=O)c6ccc(N(CC)CC)cc6)cc5)cn(C)c34)C[C@@H]2N1C(=O)NCc1ccccc1` [Compound D-57]: the pIC50 is less than 4.60.

As for `C=CCN1CC(=O)N2[C@@H](Cc3ccc(O)cc3)C(=O)N(Cc3cccc4c(C(=O)Nc5ccc(F)nc5)cn(C)c34)C[C@@H]2N1C(=O)NCc1ccccc1` [Compound G-1], the negative-log IC50 (pIC50) was 5.53.

Take `C=CCN1CC(=O)N2[C@@H](Cc3ccc(O)cc3)C(=O)N(Cc3cccc4c(C(=O)N(C)C)cn(C)c34)C[C@@H]2N1C(=O)NCc1ccccc1` [Compound F-1]: the pIC50 was 5.50.

As for `C=CCN1CC(=O)N2[C@@H](Cc3ccc(O)cc3)C(=O)N(Cc3cccc4c(-c5ccc(C(=O)Nc6cccc(OCc7ccccc7)c6)cc5)cn(C)c34)C[C@@H]2N1C(=O)NCc1ccccc1` [Compound D-20], the pIC50 is 4.76.

Take `C=CCN1CC(=O)N2[C@@H](Cc3ccc(O)cc3)C(=O)N(Cc3cccc4c(C(=O)N5CCN(C(C)=O)CC5)cn(C)c34)C[C@@H]2N1C(=O)NCc1ccccc1` [Compound E-14]: the pIC50 is 4.96. This pIC50 is 0.20 log units higher than that of the molecule before.

Consider `C=CCN1CC(=O)N2[C@@H](Cc3ccc(O)cc3)C(=O)N(Cc3cccc4c(C(=O)N5CCN6CCN(C=O)CC6C5)cn(C)c34)C[C@@H]2N1C(=O)NCc1ccccc1` (some centres unmarked) [Compound E-48], for which the pIC50 was 4.92.

Molecule `C=CCN1CC(=O)N2[C@@H](Cc3ccc(O)cc3)C(=O)N(Cc3cccc4c(C(=O)NCCN(C)C)cn(C)c34)C[C@@H]2N1C(=O)NCc1ccccc1` [Compound F-13] showed a pIC50 of 5.10. The pIC50 values of the last two molecules are within 0.2 log units of each other.

Regarding `C=CCN1CC(=O)N2[C@@H](Cc3ccc(O)cc3)C(=O)N(Cc3cccc4c(-c5ccc(NC(=O)NCC(C)(C)C)nc5)cn(C)c34)C[C@@H]2N1C(=O)NCc1ccccc1` [Compound D-96], the pIC50 is 5.66.

`C=CCN1CC(=O)N2[C@@H](Cc3ccc(O)cc3)C(=O)N(Cc3cccc4c(C(=O)NNCC(=O)OCC)cn(C)c34)C[C@@H]2N1C(=O)NCc1ccccc1` [Compound F-55] showed a pIC50 of 5.21.

`C=CCN1CC(=O)N2[C@@H](Cc3ccc(O)cc3)C(=O)N(Cc3cccc4c(C(=O)N5CCN(CCO)CC5)cn(C)c34)C[C@@H]2N1C(=O)NCc1ccccc1` [Compound E-9] had a pIC50 of 5.17.

In turn, `C=CCN1CC(=O)N2[C@@H](Cc3ccc(O)cc3)C(=O)N(Cc3cccc4c(C(=O)NCCN(CC)CC)cn(C)c34)C[C@@H]2N1C(=O)NCc1ccccc1` [Compound F-14] showed a pIC50 of 5.44.

On to `C=CCN1CC(=O)N2[C@@H](Cc3ccc(O)cc3)C(=O)N(Cc3cccc4c(C(=O)NCCN5CCOCC5)cn(C)c34)C[C@@H]2N1C(=O)NCc1ccccc1` [Compound F-25], for which the pIC50 was 5.07.

In turn, `C=CCN1CC(=O)N2[C@@H](Cc3ccc(O)cc3)C(=O)N(Cc3cccc4c(C(=O)NCCCN5CCN(C)CC5)cn(C)c34)C[C@@H]2N1C(=O)NCc1ccccc1` [Compound F-30] gave a pIC50 of 5.60.
